From US20090156477A1, “Compositions and Methods for Regulating Inflammatory Responses” (Massachusetts Institute of Technology, priority 2005, published 2009)

B1: FGF7: Recombinant human FGF7 from Sigma (protein, UniProt P21781 32-194, looked up)
Fibroblast growth factor 7: CNDMTPEQMATNVNCSSPERHTRSYDYMEGGDIRVRRLFCRTQWYLRIDKRGKVKGTQEMKNNYNIMEIRTVAVGIVAIKGVESEFYLAMNKEGKLYAKKECNEDCNFKELILENHYNTYASAKWTHNGGEMFVALNQKGIPVRGKKTKKEQKTAHFLPMAIT

How the values were obtained:
Caco-2 cells = experiment: Transepithelial resistance (TER) of Caco-2 monolayers; assay type: cell-based, human; conditions: for inhibited TER increases: 100 ng/ml ligand, three days (72 hours) after addition, percent reduction in TER compared to PBS treated cells; for time after treatment at which reductions in TER were evident: Caco-2 monolayers, TER followed over 48 hours; for reduced resistance on day 5: ligand added on day 0 and day 2, compared to untreated cells
Procedure: Caco-2 cells were grown close to confluence, and T84 cells were grown to confluence. The apical chambers of transwell plates with 6.5 mm diameter and 3 μm pore size filters were pretreated with 50 μl of 45 μg/ml collagen IV in 60% ethanol 24 hours prior to plating and incubated overnight at room temperature. After reaching confluence, cells were washed with 20 ml PBS and treated with 3.5 ml trypsin-EDTA per 175 cm^2 flask for 20-60 min at 37° C. until cells detached. Cells were resuspended in 16.5 ml media appropriate to the cell type. Each apical chamber was supplemented with 82 μl cell solution. The basolateral chamber was filled with 1 ml propagation media. Filters were fed with new media every two days over the course of experiments.
Caco-2 and T84 cells were allowed to grow on transwells to form monolayers. Monolayer formation was examined every other day by light microscopy as well as by transepithelial resistance (TER) measurements using an EVOM ohmmeter (World Precision Instruments, Sarasota, Fla.). After monolayer formation, cells were treated with 100 ng/ml FGF1, 100 ng/ml FGF2, 100 ng/ml FGF7 or an equivalent volume (10 μl) of PBS. TER measurements were made either after 72 hours or at each of the 30 minutes, 1 hour, 2 hours, 4 hours, 9 hours, 24 hours and 48 hours timepoints. To determine the effects of multiple additions of ligand, FGFs or PBS were added initially and again after 2 days, and TER measurements were made after 0, 2 and 5 days.
To probe the mechanism by which various FGFs induced cell mediated effects, various media treatments were employed. Ammonium tetrathiomolybdate (TM) was added 24 hours prior to the addition of ligands to yield a final concentration of 200 μM, sufficient to prevent the release of FGF1 [3]. Similarly, sodium chlorate, which reduces cell HSPGs and the sulfation of associated HSGAGs, was added 24 hours prior to the addition of ligands to yield a final concentration of 50 mM [33,34]. Antibodies and kinase inhibitors were added immediately prior to ligands. Antibodies to FGF1, FGFR1 and FGFR3 were added at a 1:100 dilution. Kinase inhibitors were added to yield final concentrations of 50 μM LY294002, 20 μM PD98059, 1 μM SB203580. All experiments were performed in triplicate.
Caco-2 cells were grown to just prior to confluency. The apical chambers of transwell plates with 6.5 mm diameter and 3 μm pore size filters were pretreated with 50 μl of 45 μg/ml mouse recombinant collagen IV (BD Biosciences, Bedford, Mass.) in 60% ethanol 24 hours prior to plating. Plates were incubated overnight at room temperature. Just prior to confluency, cells were washed with 20 ml phosphate buffered saline (PBS) and treated with 3.5 ml trypsin-EDTA per 175 cm^2 flask for 20-60 min at 37° C., until cells detached. Cells were resuspended in 16.5 ml media appropriate to the cell type. Each apical chamber was supplemented with 82 μl cell solution. The basolateral chamber was filled with 1 ml propagation media. Filters were fed with new media every two days over the course of experiments.
Caco-2 cells were allowed to grow on transwells to form monolayers. Monolayer formation was examined every other day by light microscopy as well as by TER measurements using an EVOM ohmmeter (World Precision Instruments, Sarasota, Fla.). After monolayer formation, cells were treated with 100 ng/ml recombinant human FGF1 (Amgen, Thousand Oaks, Calif.), 100 ng/ml recombinant human FGF2 [1], 100 ng/ml recombinant human FGF7 (Sigma, St. Louis, Mo.), or an equivalent volume (10 μl) of PBS. TER measurements were made after each of 30 minutes, 1 hour, 2 hours, 4 hours, 9 hours, 24 hours and 48 hours.
To probe the mechanism by which various FGFs induced cellular mediated effects, various media treatments were employed. TM was added 24 hours prior to the addition of ligands to yield a final concentration of 200 μM, sufficient to prevent the release of FGF1 [3]. […]

syndecan-1 = experiment: Immunohistochemistry for syndecan-1 in Caco-2 cells; assay type: cell-based, human; conditions: for syndecan-1 localization, one hour after treatment: 1 hour; for syndecan-1 distribution after 24 hours: compared to FGF1 treated cells
Procedure: Caco-2 cells were grown to just prior to confluency on collagen IV coated glass slides. Cells were treated with PBS, FGF1, FGF2 and FGF7, and were incubated at 37° C. in a 5% CO2 humidified incubator for 1 hour, 4 hours, 24 hours or 48 hours, as noted. Cells were washed with PBS, fixed with 3.7% formalin for 10 minutes and washed again with PBS. Cells were treated with 0.1% Triton x-100 for 5 minutes to extract lipids. Cells were washed with PBS and preincubated with PBS supplemented with 1% bovine serum albumin. Primary antibodies were added for 4 hours at room temperature, and cells were washed with PBS. Primary antibodies used were as follows: rabbit anti-human ZO-1 (1:160; Zymed Laboratories, San Francisco, Calif.); mouse anti-human syndecan-1 (1:300; Santa Cruz Biotechnology); goat anti-human Fz-1 (1:125; Santa Cruz Biotechnology); rabbit anti-human caveolin-1 (1:250; Santa Cruz Biotechnology); goat anti-human glypican-1 (1:100; Santa Cruz Biotechnology); mouse anti-human E-cadherin (1:250; Zymed Laboratories); rabbit anti-human β-catenin (1:125; Cell Signaling Technology, Beverly, Mass.); and rabbit anti-human phospho-β-catenin (Ser33/37/Thr41; 1:125; Cell Signaling Technology, Beverly, Mass.).
Cells were then treated with secondary antibodies, Texas Red-labeled phalloidin (Molecular Probes, Eugene, Oreg.) or FLAER-FL1 (1:400; Protox Biotech, Victoria, BC, Canada) as appropriate for 1 hour in the dark at room temperature. Secondary antibodies used were as follows: FITC-labeled chicken anti-rabbit (for ZO-1; 1:100; Molecular Probes, Eugene, Oreg.); Texas Red-labeled goat-anti mouse (for syndecan-1; 1:400; Molecular Probes); FITC-labeled donkey anti-mouse (for syndecan-1; 1:400; Molecular Probes, Eugene, Oreg.); FITC-labeled rabbit anti-mouse (for syndecan-1 and E-cadherin; 1:500; Molecular Probes, Eugene, Oreg.); Texas Red-labeled rabbit anti-goat (for Fz-1; 1:200; Jackson ImmunoResearch Laboratories, West Grove, Pa.); Texas Red-labeled goat anti-rabbit (for caveolin-1, β-catenin and phospho-β-catenin; 1:500; Molecular Probes); and Texas Red-labeled donkey anti-goat (for glypican-1; 1:80; Research Diagnostics, Flanders, N.J.).
Cells, except those stained with phalloidin, were washed with PBS and stained with diamidino-2-phenylindole (DAPI) for 5 minutes at room temperature (Molecular Probes). Controls of no antibody, primary antibody only, and secondary antibody only were performed. Cells were examined by confocal microscopy (ZO-1 and phalloidin only), or by fluorescence microscopy. A Nikon HB10101AF fluorescence microscope was used and images were captured at room temperature using a Hitachi HVC20 camera and Scion image acquisition software. Images were processed using Adobe Photoshop 7.0 and Adobe Illustrator 10.0.

Row | Molecule | inhibited TER increases (Caco-2 cells; Caco-2 cells) [%] | reduced TER at 48 hours (Caco-2 cells; Caco-2 cells, 100 ng/ml, 48 hours) [%] | effect of added agent on FGF-induced reduction in TER (Caco-2 cells; Caco-2 cells, agent given before or with 100 ng/ml FGFs (TM 200 μM, sodium chlorate 50 mM, LY294002 50 μM, PMA 100 ng/ml, antibodies 1:100)) | reduction of TER in TM treated cells (Caco-2 cells; Caco-2 monolayers pretreated with 200 μM TM, all time points beginning at 4 hours) | reduction of TER with the addition of heparin (Caco-2 cells; Caco-2 monolayers pretreated with 50 mM sodium chlorate, heparin 500 ng/ml with ligands, vs PBS) | time after treatment at which reductions in TER were evident (Caco-2 cells; 100 ng/ml) [h] | syndecan-1 localization, one hour after treatment (syndecan-1) | reduced resistance on day 5 (Caco-2 cells; Caco-2 cells) [%] | syndecan-1 distribution after 24 hours (syndecan-1)
1 | FGF1: Recombinant human FGF1 from Amgen | 35.1±12.3 | 45.1±5.2 | restored the ability of FGF2 and FGF7 to reduce TER | still elicited significant reductions in TER | reduced TER compared to PBS | 2 | seen to a lesser amount |  | 
2 | FGF2: Recombinant human FGF2, produced as described | 67.2±25.8 |  |  |  |  | 4 | primarily localized around the nucleus | 43.6±11.1 | moderately enhanced cytoplasmic and membrane-associated distribution of syndecan-1
3 | B1 | 61.4±17.3 |  |  |  |  | 4 | primarily localized around the nucleus | 44.4±8.7 | moderately enhanced cytoplasmic and membrane-associated distribution of syndecan-1
